Experiments:
human Nurr1 = human Nurr1 (Homo sapiens, UniProt P43354); experiment: Hybrid Gal4-Nurr1 reporter gene assay in HEK293T cells
Experimental: Nurr1 modulation was determined in a Gal4 hybrid reporter gene assays in HEK293T cells (German Collection of Microorganisms and Cell Culture GmbH, DSMZ) using pFR-Luc (Stratagene, La Jolla, CA, USA; reporter), pRL-SV40 (Promega, Madison, WI, USA: internal control) and pFA-CMV-hNurr1-LBD, coding for the hinge region and ligand binding domain of the canonical isoform of human Nurr1. Cells were cultured in Dulbecco's modified Eagle's medium (DMEM), high glucose supplemented with 10% fetal calf serum (FCS), sodium pyruvate (1 mM), penicillin (100 U/mL), and streptomycin (100 μg/mL) at 37° C., and 5% CO2 and seeded in 96-well plates (3×10+ cells/well). […] Firefly luminescence was divided by Renilla luminescence and multiplied by 1000 resulting in relative light units (RLU) to normalize for transfection efficiency and cell growth. Fold activation was obtained by dividing the mean RLU of test compound by the mean RLU of the untreated control. All samples were tested in at least three biologically independent experiments in duplicates. For dose-response curve fitting and calculation of EC50 values, the equation “[Agonist] versus response (three parameters)” was used in GraphPad Prism (version 7.00, GraphPad Software, La Jolla, CA, USA).
Similarly as described in Part A, the Nurr1 modulation was determined in a Gal4 hybrid reporter gene assay at a fixed concentration of 3 μM.

hDHODH = biological target: T1, hDHODH (Homo sapiens, UniProt Q02127); experiment: in vitro inhibition of hDHODH; assay type: biochemical
T1 construct: measured using an N-terminally truncated recombinant hDHODH enzyme
Experimental: The in vitro inhibition of hDHODH was measured using an N-terminally truncated recombinant hDHODH enzyme. Briefly, the hDHODH concentration was adjusted in a way that an average slope of approximately 0.2 AU/min served as the positive control (e.g., without inhibitor). The assay mixture contained 60 μM 2,6-dichloroindophenol, 50 μM decylubiquinone and 100 μM dihydroorotate. The hDHODH enzyme with or without at least six different concentrations of the compounds was added and measurements were performed in 50 mM TrisHCl, 150 mM KCl and 0.1% Triton X-100 at pH 8.0 and at 30° C. The reaction was started by adding dihydroorotate and measuring the absorption at 600 nm for 2 min. For the determination of the IC50 values, each data point was recorded in triplicate.

BDNF = experiment: Induction of BDNF in LPS-stimulated human PBMCs (ELISA); assay type: cell-based; conditions: 3 μM, supernatant 14 h

T1 sequence (Q02127 29-395): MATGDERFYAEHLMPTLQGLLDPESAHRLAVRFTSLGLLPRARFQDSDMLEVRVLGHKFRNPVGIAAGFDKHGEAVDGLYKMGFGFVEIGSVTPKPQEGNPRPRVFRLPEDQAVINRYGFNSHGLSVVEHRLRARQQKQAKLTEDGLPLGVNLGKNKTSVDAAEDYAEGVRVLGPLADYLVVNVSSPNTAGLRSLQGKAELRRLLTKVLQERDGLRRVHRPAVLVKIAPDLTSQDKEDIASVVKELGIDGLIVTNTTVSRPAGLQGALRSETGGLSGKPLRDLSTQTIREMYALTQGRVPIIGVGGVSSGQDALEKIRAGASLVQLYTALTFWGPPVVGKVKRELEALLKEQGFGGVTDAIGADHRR
human Nurr1, sequence (P43354 360-595 limits assumed): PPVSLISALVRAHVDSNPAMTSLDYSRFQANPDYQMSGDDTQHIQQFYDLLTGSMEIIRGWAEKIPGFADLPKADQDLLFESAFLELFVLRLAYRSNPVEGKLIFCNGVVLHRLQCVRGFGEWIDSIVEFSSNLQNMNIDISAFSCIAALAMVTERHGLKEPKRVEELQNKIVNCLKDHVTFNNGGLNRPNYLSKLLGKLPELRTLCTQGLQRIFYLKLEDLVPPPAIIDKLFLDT

[2H]C([2H])([2H])Oc1cccc(-c2c(F)c(F)c(NC(=O)c3ccsc3C(=O)O)c(F)c2F)c1 [6/2]
Fold Activation @ 3 μM (human Nurr1): ++ (++: ≥2-fold to <3-fold)

[2H]C([2H])([2H])Oc1cccc(-c2c(F)c(F)c(NC(=O)c3ccsc3C(=O)NCC(F)(F)F)c(F)c2F)c1 [6/44]
Fold Activation @ 3 μM (human Nurr1): + (+: ≥1.3-fold to <2-fold)

COc1cccc(-c2ccc(NC(=O)C3=C(C(=O)NO)CCC3)c(F)c2)c1 [6/10]
Fold Activation @ 3 μM (human Nurr1): ++ (++: ≥2-fold to <3-fold)

[2H]C([2H])([2H])Oc1cccc(-c2ccc(NC(=O)c3cscc3C(=O)NCC)cc2)c1 [6/56]
IC50 (hDHODH): > 10 µM | EC50 (human Nurr1): 1 to 10 µM | Nurr1 agonism max. fold activation (range) (human Nurr1): +++ (+++: ≥3-fold)

C#CCOc1cccc(-c2c(F)c(F)c(NC(=O)c3ccsc3C(=O)O)c(F)c2F)c1 [6/17]
Fold Activation @ 3 μM (human Nurr1): +++ (+++: ≥3-fold)

[2H]C([2H])([2H])Oc1cccc(-c2c(F)c(F)c(NC(=O)C3=C(C(=O)O)CC(F)(F)C3)c(F)c2F)c1 [6/1]
Fold Activation @ 3 μM (human Nurr1): ++ (++: ≥2-fold to <3-fold)

[2H]C([2H])([2H])Oc1cccc(-c2cc(F)c(NC(=O)C3=C(C(=O)NS(=O)(=O)C4(C)CC4)CCC3)c(F)c2)c1 [2/21]
EC50 (human Nurr1): 1 to 10 µM | Nurr1 agonism max. fold activation (range) (human Nurr1): ++ (++: ≥2-fold to <3-fold)

C#CCOc1cccc(-c2ccc(NC(=O)c3cscc3C(=O)O)c(F)c2)c1 [6/52]
IC50 (hDHODH): 0.1 to 1 µM | EC50 (human Nurr1): < 0.1 µM | Nurr1 agonism max. fold activation (range) (human Nurr1): ++ (++: ≥2-fold to <3-fold)

[2H]C([2H])([2H])Oc1cccc(-c2c(F)c(F)c(NC(=O)C3=C(C(=O)O)CCC3)c(F)c2F)c1 [2/10]
EC50 (human Nurr1): < 0.1 µM | Nurr1 agonism max. fold activation (range) (human Nurr1): + (+: ≥1.3-fold to <2-fold)

O=C(O)C1=C(C(=O)Nc2c(F)cc(-c3cccc4c3OCO4)cc2F)CCC1 [reference compound]
EC50 (human Nurr1): > 10 µM

[2H]C([2H])([2H])Oc1cccc(-c2ccc(NC(=O)C3=C(C(=O)O)CCC3)c3cnccc23)c1 [2/13]
EC50 (human Nurr1): 1 to 10 µM | Nurr1 agonism max. fold activation (range) (human Nurr1): +++ (+++: ≥3-fold)

[2H]C([2H])([2H])Oc1ccccc1-c1c(F)c(F)c(NC(=O)c2cscc2C(=O)O)c(F)c1F [6/5]
IC50 (hDHODH): < 0.01 µM | EC50 (human Nurr1): < 0.1 µM | Nurr1 agonism max. fold activation (range) (human Nurr1): + (+: ≥1.3-fold to <2-fold)

[2H]C([2H])([2H])Oc1ccccc1-c1c(F)c(F)c(NC(=O)C2=C(C(=O)O)CSC2)c(F)c1F [6/7]
Fold Activation @ 3 μM (human Nurr1): ++ (++: ≥2-fold to <3-fold)

[2H]C([2H])([2H])Oc1cccc(C23CCC(NC(=O)C4=C(C(=O)O)CCC4)(CC2)CC3)c1 [reference compound]
IC50 (hDHODH): > 50 µM | EC50 (human Nurr1): > 10 µM

C#CCOc1cccc(-c2ccc(NC(=O)c3cscc3C(N)=O)cc2)c1 [6/54]
IC50 (hDHODH): > 10 µM | EC50 (human Nurr1): 1 to 10 µM | Nurr1 agonism max. fold activation (range) (human Nurr1): + (+: ≥1.3-fold to <2-fold)

[2H]C([2H])([2H])Oc1cccc(-c2ccc(NC(=O)c3cscc3C(=O)O)cc2)c1 [6/50]
IC50 (hDHODH): 0.1 to 1 µM | EC50 (human Nurr1): < 0.1 µM | Nurr1 agonism max. fold activation (range) (human Nurr1): ++ (++: ≥2-fold to <3-fold)

[2H]C([2H])([2H])Oc1cccc(-c2c(F)c(F)c(NC(=O)c3ccccc3C(=O)O)c(F)c2F)c1 [6/20]
IC50 (hDHODH): < 0.1 µM | EC50 (human Nurr1): < 0.1 µM

[2H]C([2H])([2H])Oc1cccc(-c2ccc(NC(=O)c3cscc3C(N)=O)cc2)c1 [6/53]
IC50 (hDHODH): > 10 µM | EC50 (human Nurr1): 0.1 to 1 µM | Nurr1 agonism max. fold activation (range) (human Nurr1): + (+: ≥1.3-fold to <2-fold)

[2H]C([2H])([2H])Oc1cccc(-c2c(F)cc(NC(=O)c3ccsc3C(=O)O)cc2F)c1 [6/8]
Fold Activation @ 3 μM (human Nurr1): +++ (+++: ≥3-fold)

[2H]C(F)(F)Oc1cccc(-c2ccc(NC(=O)C3=C(C(=O)O)CCC3)c(F)c2)c1 [2/2]
IC50 (hDHODH): 1 to 10 µM | EC50 (human Nurr1): 0.1 to 1 µM | Nurr1 agonism max. fold activation (range) (human Nurr1): +++ (+++: ≥3-fold)

[2H]C([2H])([2H])Oc1cccc(-c2c(F)c(F)c(NC(=O)c3ccsc3C(=O)NCC#N)c(F)c2F)c1 [6/39]
IC50 (hDHODH): 0.1 to 1 µM | EC50 (human Nurr1): 1 to 10 µM | Nurr1 agonism max. fold activation (range) (human Nurr1): ++ (++: ≥2-fold to <3-fold)

[2H]c1cc([2H])c(-c2c(F)c(F)c(NC(=O)c3ccsc3C(=O)O)c(F)c2F)c([2H])c1OC(F)(F)F [2/25]
Fold Activation @ 0.3 μM (human Nurr1): +++ (+++: ≥3-fold) | Fold Activation @ 3 μM (human Nurr1): ++ (++: ≥2-fold to <3-fold)

[2H]C([2H])([2H])Oc1cccc(-c2cc(F)c(NC(=O)C3=C(C(=O)NOCCO)CCC3)c(F)c2)c1 [2/24]
EC50 (human Nurr1): 1 to 10 µM | Nurr1 agonism max. fold activation (range) (human Nurr1): + (+: ≥1.3-fold to <2-fold)

[2H]c1cc([2H])c(-c2ccc(NC(=O)C3=C(C(=O)O)CCC3)c(F)c2)c([2H])c1O [2/4]
EC50 (human Nurr1): 0.1 to 1 µM | Nurr1 agonism max. fold activation (range) (human Nurr1): + (+: ≥1.3-fold to <2-fold)

[2H]C([2H])([2H])Oc1cccc(-c2cc(F)c(NC(=O)C3=C(/C(N)=N/O)CCC3)c(F)c2)c1 [2/20]
EC50 (human Nurr1): 0.1 to 1 µM | Nurr1 agonism max. fold activation (range) (human Nurr1): ++ (++: ≥2-fold to <3-fold)

[2H]C([2H])([2H])Oc1cccc(-c2c(F)c(F)c(NC(=O)c3ccsc3C(=O)NCC)c(F)c2F)c1 [6/15]
IC50 (hDHODH): > 10 µM | EC50 (human Nurr1): 0.1 to 1 µM | Nurr1 agonism max. fold activation (range) (human Nurr1): + (+: ≥1.3-fold to <2-fold)

[2H]c1c([2H])c([2H])c(-c2c(F)c(F)c(NC(=O)c3ccsc3C(N)=O)c(F)c2F)c([2H])c1[2H] [6/45]
IC50 (hDHODH): 1 to 10 µM | EC50 (human Nurr1): 0.1 to 1 µM

C#CCOc1cccc(-c2ccc(NC(=O)c3cscc3C(=O)O)cc2)c1 [6/51]
IC50 (hDHODH): 1 to 10 µM | EC50 (human Nurr1): 0.1 to 1 µM | Nurr1 agonism max. fold activation (range) (human Nurr1): +++ (+++: ≥3-fold)

C#CCOc1cccc(-c2ccc(NC(=O)c3cscc3C(=O)NCC)c(F)c2)c1 [6/58]
IC50 (hDHODH): > 10 µM | EC50 (human Nurr1): 1 to 10 µM | Nurr1 agonism max. fold activation (range) (human Nurr1): + (+: ≥1.3-fold to <2-fold)

C#CCOc1cccc(-c2c(F)c(F)c(NC(=O)c3ccsc3C(=O)NC)c(F)c2F)c1 [6/18]
Fold Activation @ 3 μM (human Nurr1): + (+: ≥1.3-fold to <2-fold)

[2H]C([2H])([2H])Oc1cccc(-c2c(F)c(F)c(NC(=O)c3c(C(=O)O)sc(C)c3C)c(F)c2F)c1 [6/13]
IC50 (hDHODH): < 0.1 µM | EC50 (human Nurr1): < 0.1 µM | Nurr1 agonism max. fold activation (range) (human Nurr1): ++ (++: ≥2-fold to <3-fold)

[2H]C([2H])([2H])Oc1cccc(-c2cc(F)c(NC(=O)C3=C(C(=O)NOC)CCC3)c(C#N)c2)c1 [2/29]
Fold Activation @ 3 μM (human Nurr1): + (+: ≥1.3-fold to <2-fold)

[N-]=[N+]=NCCOc1cccc(-c2ccc(NC(=O)C3=C(C(=O)O)CCC3)c(F)c2)c1 [4/1]
EC50 (human Nurr1): < 0.1 µM | Nurr1 agonism max. fold activation (range) (human Nurr1): +++ (+++: ≥3-fold)

[2H]C([2H])([2H])Oc1cccc(-c2cc(F)c(NC(=O)C3=C(C(=O)NOCCF)CCC3)c(F)c2)c1 [2/23]
EC50 (human Nurr1): 0.1 to 1 µM | Nurr1 agonism max. fold activation (range) (human Nurr1): + (+: ≥1.3-fold to <2-fold)

[2H]C([2H])([2H])Oc1cccc(-c2c(F)c(F)c(NC(=O)c3ccsc3C(=O)NCC(F)F)c(F)c2F)c1 [6/41]
Fold Activation @ 0.3 μM (human Nurr1): + (+: ≥1.3-fold to <2-fold)

[2H]C([2H])([2H])Oc1cccc(-c2c(F)c(F)c(NC(=O)c3cscc3C(=O)O)c(F)c2F)c1 [6/3]
Fold Activation @ 3 μM (human Nurr1): ++ (++: ≥2-fold to <3-fold)

[2H]c1c([2H])c([2H])c(-c2c(F)c(F)c(NC(=O)C3=C(C(N)=O)CC(F)(F)C3)c(F)c2F)c([2H])c1[2H] [6/46]
IC50 (hDHODH): 1 to 10 µM | EC50 (human Nurr1): 0.1 to 1 µM

[2H]C([2H])([2H])Oc1cccc(-c2c(F)c(F)c(NC(=O)c3ccsc3C(N)=O)c(F)c2F)c1 [6/14]
IC50 (hDHODH): 1 to 10 µM | EC50 (human Nurr1): 0.1 to 1 µM | Nurr1 agonism max. fold activation (range) (human Nurr1): + (+: ≥1.3-fold to <2-fold)

[2H]C([2H])([2H])Oc1cccc(-c2ccc(N(C)C(=O)C3=C(C(=O)O)CCC3)c(F)c2)c1 [reference compound]
EC50 (human Nurr1): > 10 µM

C/C(O)=C(\C#N)C(=O)Nc1ccc(C(F)(F)F)cc1 [teriflunomide, reference compound]
BDNF production (BDNF): no effect

C#CCOc1cccc(-c2ccc(NC(=O)c3cscc3C(=O)NCC)cc2)c1 [6/57]
IC50 (hDHODH): > 10 µM | EC50 (human Nurr1): 1 to 10 µM | Nurr1 agonism max. fold activation (range) (human Nurr1): + (+: ≥1.3-fold to <2-fold)

[2H]C([2H])([2H])Oc1cccc(-c2cc(F)c(NC(=O)C3=C(C(=O)NOCC)CCC3)c(F)c2)c1 [2/18]
EC50 (human Nurr1): 1 to 10 µM | Nurr1 agonism max. fold activation (range) (human Nurr1): ++ (++: ≥2-fold to <3-fold)

[2H]C([2H])([2H])Oc1cccc(-c2c(F)c(F)c(NC(=O)c3ccsc3C(=O)NCCO)c(F)c2F)c1 [6/40]
IC50 (hDHODH): > 10 µM | EC50 (human Nurr1): 1 to 10 µM | Nurr1 agonism max. fold activation (range) (human Nurr1): + (+: ≥1.3-fold to <2-fold)

[2H]C([2H])([2H])Oc1cccc(-c2cc(F)c(NC(=O)C3=C(C(=O)O)CCC3)c(OC([2H])([2H])[2H])c2)c1 [2/31]
EC50 (human Nurr1): 0.1 to 1 µM | Nurr1 agonism max. fold activation (range) (human Nurr1): + (+: ≥1.3-fold to <2-fold)

[2H]C([2H])([2H])Oc1ccccc1-c1c(F)c(F)c(NC(=O)C2=C(C(=O)O)CCC2)c(F)c1F [2/27]
Fold Activation @ 3 μM (human Nurr1): +++ (+++: ≥3-fold)

[2H]C([2H])([2H])Oc1cccc(-c2c(F)c(F)c(NC(=O)C3=C(C(=O)N(C)C)CC(F)(F)C3)c(F)c2F)c1 [6/27]
IC50 (hDHODH): 1 to 10 µM | EC50 (human Nurr1): 1 to 10 µM | Nurr1 agonism max. fold activation (range) (human Nurr1): + (+: ≥1.3-fold to <2-fold)

[2H]C([2H])([2H])Oc1cccc(-c2cc(F)c(NC(=O)C3=C(C(=O)NS(=O)(=O)C(F)F)CCC3)c(F)c2)c1 [2/22]
EC50 (human Nurr1): 1 to 10 µM | Nurr1 agonism max. fold activation (range) (human Nurr1): ++ (++: ≥2-fold to <3-fold)

[2H]C([2H])([2H])Oc1cccc(-c2cc(F)c(NC(=O)c3ccsc3C(=O)O)c(F)c2)c1 [2/26]
Fold Activation @ 3 μM (human Nurr1): + (+: ≥1.3-fold to <2-fold)
